# Experimental data taken from patent US12144864B2, “Tubulysins and protein-tubulysin conjugates” (Regeneron Pharmaceuticals, Inc., priority 2018, dated 2024).
# Read-outs that look alike come from different tables or passages of the source.
# Legend:
# HL60/MX2 cells = assay: Cytotoxicity in panel of MDR cell lines, HL60/MX2 (72 h and 144 h); format: cell-based, human; settings: for IC50: Homo sapiens
# Summary of the method: (§1)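 1000 cells/well, normal growth medium; 1:3 serial payload dilutions plus untreated control; 72 h and 144 h at 37 °C, 5% CO2; CellTiter-Glo 10 min RT; RLU → 4-parameter logistic IC50 (10 points).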
# HCT-15 cells = assay: Cytotoxicity in panel of MDR cell lines, HCT-15 (72 h and 144 h); format: cell-based, human; settings: for IC50: Homo sapiens
# Summary of the method: as §1
# HCT15 cells = assay: cells; format: cell-based, human; settings: HCT15 cells
# Summary of the method: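 HCT15 colorectal carcinoma cells, 1000 per well in RPMI/10% FBS, with or without 5 ug/mL verapamil, exposed to 1:3 serially diluted payloads for 5 days at 37 °C. Viability measured by CellTiter-Glo ATP luminescence; IC50 from four-parameter logistic fit of a 10-point curve, % kill at top concentration.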
# HCT15/PRLR cells = assay: Cytotoxicity of anti-PRLR tubulysin ADCs and payloads in HCT15/PRLR cells with or without Verapamil; format: cell-based, human; settings: for IC50: Homo sapiens, HCT-15
# Description: (§2) To test the ability of the disclosed tubulysin payloads to kill human cell lines, an in vitro cytotoxicity assay was performed. In vitro cytotoxicity of the disclosed payloads, as well as reference compounds, were evaluated using the CellTiter-Glo Assay Kit (Promega, Cat #G7573), in which the quantity of ATP present is used to determine the number of viable cells in culture. For the assay, C4-2, HEK293, or T47D cells were seeded at 4000 cells/well on Nunclon white 96-well plates in complete growth medium (DME high glucose:Ham's F12 at 4:1, 10% FBS, 100 units/ml Penicillin, 100 ug/ml streptomycin, 53 ug/ml glutatmine, 10 ug/ml insulin, 220 ng/ml biotin, 12.5 pg/ml T3, 12.5 ug/ml Adenine, 4 ug/ml transferrin for C42 cells; DME high glucose, 10% FBS, 100 units/ml Penicillin, 100 ug/ml streptomycin, 53 ug/ml glutatmine for HEK293; RPMI, 10% FBS, 100 units/ml Penicillin, 100 ug/ml streptomycin, 53 ug/ml glutatmine, 10 ug/ml insulin, 10 mM HEPEs, 200 nM Sodium Pyruvate for T47D cells) and grown overnight at 37° C. in 5% CO2. For cell viability curves, 1:3 serially diluted payloads were added to the cells at final concentrations ranging from 100 nM to […], including a no treatment control group, and were then incubated for 5 days. After the 5-day incubation, cells were incubated at room temperature with 100 μL of CellTiter-Glo reagents for 10 minutes. Relative luminescence units (RLU) were determined on a Victor plate reader (PerkinElmer). The IC50 values were determined from a four-parameter logistic equation over a 10-point response curve (GraphPad Prism). All IC50 values are expressed in molar (M) concentration. The percent cell killing (% kill) at the maximum concentration tested was estimated from the following formula (100−% viable cells). Averages±standard deviation (SD) are included where replicate experiments were performed.
# Bioassays were developed to assess the efficacy of an anti-PRLR antibody conjugated with the disclosed tubulysin payloads and reference payloads. It was developed to assess the activity of tubulysin payloads after internalization of an anti-PRLR-tubulysin ADC into cells, release of the payload, and subsequent cytotoxicity. For this assay, a HCT15 line was engineered to express human full length PRLR (accession #NP_000940.1). The resulting stable cell line is referred to herein as HCT15/PRLR. In vitro cytotoxicity of the disclosed payloads, reference compounds, and tested ADCs were evaluated similarly as described in this example using HCT15/PRLR cells with or without […] of Verapamil diluted in normal culture medium. The compounds were tested at concentrations starting at 100 nM with 3-fold serial dilution. All IC50 values are expressed in nM concentration and the percent cell killing (% kill) at the maximum concentration tested was estimated from the following formula (100−% viable cells).
# MES-SA/MX2 cells = assay: Cytotoxicity in panel of MDR cell lines, MES-SA/MX2 (72 h and 144 h); format: cell-based, human; settings: for IC50: Homo sapiens
# Summary of the method: as §1
# T47D cells = assay: Cell-based killing assay of payloads (CellTiter-Glo), T47D cells; parameters: species or system human; settings: 5-day incubation
# Summary of the method: (§3)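 Cells plated at 4000/well in line-specific complete medium, grown overnight, then exposed to 1:3 serial dilutions of payload (100 nM to […]) for 5 days. ATP-based CellTiter-Glo luminescence read; IC50 from four-parameter logistic 10-point fit, and % kill at top concentration as 100 − % viable.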
# HEK293 cells = assay: Cell-based killing assay of payloads (CellTiter-Glo), HEK293 cells; parameters: species or system human; settings: 5-day incubation
# Summary of the method: as §3
# C4-2 cells [1] = assay: Cell-based killing assay of payloads (CellTiter-Glo), C4-2 cells; parameters: species or system human; settings: 5-day incubation
# Summary of the method: as §3
# C4-2 cells [2] = assay: Cytotoxicity of anti-STEAP2 ADCs, payloads and reference compounds in C4-2 cells; format: cell-based, human
# Description: as §2
# To further test the ability of the disclosed tubulysin payloads, reference compounds, and antibody drug conjugates using these payloads, a cytotoxicity assay was performed using C4-2 cells as described in this example (see above). For these studies, anti-STEAP2 antibodies were conjugated to select tubulysins payloads, and the compounds were tested at concentrations starting at 100 nM with 3-fold serial dilution. All IC50 values are expressed in nM concentration and the percent cell killing at the maximum concentration tested was estimated from the following formula (100−% viable cells).
# H69AR cells = assay: Cytotoxicity in panel of MDR cell lines, H69AR (72 h and 144 h); format: cell-based, human; settings: for IC50: Homo sapiens
# Summary of the method: as §1
# [3] = biological target: T1, STEAP2 endogenously expressed on C4-2 cells (human, UniProt Q8NFT2 1-490); assay: cell-based or functional assay
# T1 sequence (looked up): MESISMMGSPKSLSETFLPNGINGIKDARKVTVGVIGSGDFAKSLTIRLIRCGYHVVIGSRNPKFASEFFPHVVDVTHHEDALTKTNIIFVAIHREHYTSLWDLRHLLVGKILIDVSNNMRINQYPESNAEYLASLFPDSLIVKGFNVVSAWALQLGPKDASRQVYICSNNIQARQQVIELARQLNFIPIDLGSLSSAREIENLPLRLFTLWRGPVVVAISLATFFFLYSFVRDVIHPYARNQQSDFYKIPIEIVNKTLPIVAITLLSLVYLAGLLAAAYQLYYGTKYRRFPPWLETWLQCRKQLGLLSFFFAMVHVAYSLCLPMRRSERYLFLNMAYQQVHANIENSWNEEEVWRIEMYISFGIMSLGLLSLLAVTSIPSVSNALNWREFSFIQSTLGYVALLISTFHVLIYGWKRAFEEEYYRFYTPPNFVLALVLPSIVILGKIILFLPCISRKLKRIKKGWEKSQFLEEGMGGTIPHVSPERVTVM
# [4] = system: STEAP2 positive C4-2 prostate cancer xenografts; assay: In vivo efficacy of anti-STEAP2 ADCs in C4-2 prostate cancer xenografts in SCID mice; parameters: species or system mouse; settings: single dose 2.5 mg/kg via tail vein; end of study
# Description: To determine the in vivo efficacy of anti-STEAP2 antibodies conjugated to tubulysins, studies were performed in immunocompromised mice bearing STEAP2 positive C4-2 prostate cancer xenografts.
# For the assay, 7.5×10^6 C4-2 cells (ATCC, Cat #CRL-3314), which endogenously express STEAP2, were suspended in Matrigel (BD Biosciences, Cat #354234) and implanted subcutaneously into the left flank of male CB17 SCID mice (Taconic, Hudson NY). Once tumors had reached an average volume of 220 mm^3 (around Day 15), mice were randomized into groups of 7 and given a single dose of either anti-STEAP2 conjugated antibodies (anti-STEAP2-LP3, anti-STEAP2-LP4, anti-STEAP2-MMAE), isotype control conjugated antibody, or vehicle at 2.5 mg/kg via tail vein injection. Tumors were measured with calipers twice a week until the average size of the vehicle group reached 1500 mm^3. Tumor size was calculated using the formula (length×width^2)/2 and the average tumor size+/−SEM was then calculated. Tumor growth inhibition was calculated according to the following formula: (1−((Tfinal−Tinitial)/(Cfinal−Cinitial)))*100, where treated group (T) and control group (C) represent the mean tumor mass on the day the vehicle group reached 1500 mm^3.
# [5] = at maximum concentration tested
molecule,measurement,setting,value
"C#CCCCON(C(=O)[C@@H](NC(=O)[C@H]1CCCCN1C)[C@@H](C)CC)[C@H](C[C@@H](OC(C)=O)c1nc(C(=O)N[C@@H](Cc2ccc(N)cc2)CC(C)(C)C(=O)O)cs1)C(C)C [Ve, (4S)-4-({2-[(1R,3R)-1-(Acetyloxy)-4-methyl-3-[(2S,3S)-3-methyl-2-{[(2R)-1-methylpiperidin-2-yl]formamido}-N-(pent-4-yn-1-yloxy)pentanamido]pentyl]-1,3-thiazol-4-yl}formamido)-5-(4-aminophenyl)-2,2-dimethylpentanoic acid]",HL60/MX2 % Kill 72 h,HL60/MX2 cells; 72 h incubation,98.3%
same,HL60/MX2 % Kill 144 h,HL60/MX2 cells; 144 h incubation,100%
same,IC50,"HL60/MX2 cells; 72 h incubation, read-out: HL60/MX2 IC50 72 h",< 0.015 nM
same,IC50,"HL60/MX2 cells; 144 h incubation, read-out: HL60/MX2 IC50 144 h",< 0.015 nM
same,HCT-15 % Kill 72 h,HCT-15 cells; 72 h incubation,97.5%
same,HCT-15 % Kill 144 h,HCT-15 cells; 144 h incubation,99.7%
same,IC50,"HCT-15 cells; 72 h incubation, read-out: HCT-15 IC50 72 h",0.0922 nM
same,IC50,"HCT-15 cells; 144 h incubation, read-out: HCT-15 IC50 144 h",0.158 nM
same,HCT-15 + verapamil % Kill,"HCT15 cells; with 5 ug/mL Verapamil, maximum % cell killing",98.2 ± 1.2%
same,IC50,"HCT15 cells; with 5 ug/mL Verapamil, read-out: HCT-15 + verapamil IC50",0.0654 nM
same,HCT-15 % Kill,"HCT15 cells; without Verapamil, maximum % cell killing",98.6 ± 0.7%
same,IC50,"HCT15 cells; Homo sapiens, HCT-15, without Verapamil, read-out: HCT-15 IC50",0.273 nM
same,IC50,"HCT15/PRLR cells; with Verapamil, read-out: IC50 (nM) on HCT15/PRLR w/ Verapamil",0.033 nM
same,IC50,"HCT15/PRLR cells; without Verapamil, read-out: IC50 (nM) on HCT15/PRLR w/o Verapamil",0.203 nM
same,% kill on HCT15/PRLR w/ Verapamil,"HCT15/PRLR cells; with Verapamil, at maximum concentration tested",99%
same,% kill on HCT15/PRLR w/o Verapamil,"HCT15/PRLR cells; without Verapamil, at maximum concentration tested",99%
same,MES-SA/MX2 % Kill 72 h,MES-SA/MX2 cells; 72 h incubation,98.9%
same,MES-SA/MX2 % Kill 144 h,MES-SA/MX2 cells; 144 h incubation,100%
same,IC50,"MES-SA/MX2 cells; 72 h incubation, read-out: MES-SA/MX2 IC50 72 h",0.52 nM
same,IC50,"MES-SA/MX2 cells; 144 h incubation, read-out: MES-SA/MX2 IC50 144 h",0.734 nM
same,IC50,"T47D cells; Homo sapiens, T47D, 120 h",0.0731 nM
same,T47D % Kill,T47D cells; [5],69.8%
same,IC50,"HEK293 cells; Homo sapiens, HEK293, 120 h",0.103 nM
same,HEK293 % Kill,HEK293 cells; [5],88.5%
same,IC50,"C4-2 cells [1]; Homo sapiens, C4-2, 120 h, average ± SD where replicates",< 0.047 nM
same,C4-2 % Kill,C4-2 cells [1]; at maximum concentration tested (100 − % viable cells),92.6%
same,IC50,"C4-2 cells [2]; Homo sapiens, top concentration 100 nM, 3-fold serial dilution",0.063 nM
same,% kill,C4-2 cells [2]; [5],99%
same,H69AR % Kill 72 h,H69AR cells; 72 h incubation,96.6%
same,H69AR % Kill 144 h,H69AR cells; 144 h incubation,99.5%
same,IC50,"H69AR cells; 72 h incubation, read-out: H69AR IC50 72 h",0.331 nM
same,IC50,"H69AR cells; 144 h incubation, read-out: H69AR IC50 144 h",0.559 nM
"Anti-STEAP2 N297Q Ab-LP3 (antibody, V domains shown, N297Q (EU numbering) in the heavy chain constant region; linker-payload LP3 (payload IVd) clicked to azido-PEG3-amine that transglutaminase put on heavy chain glutamines; DAR 3.8 (Table 7)) VH: QVQLVESGGGVVQPGRSLRLSCVASGFTISSYGMNWVRQAPGKGLEWVAVISYDGGNKYSVDSVKGRFTISRDNSKNTLYLQMNSLRAEDSAVYYCARGRYFDLWGRGTLVTVSS VL: DIQMTQSPSTLSASVGDRVTITCRASQSISSWLAWYQQKPGRAPNLLISKASSLKSGVPSRFSGSGSGTEFTLTVSSLQPDDFATYYCQQYYSYSYTFGQGTKLEIK","% kill, C4-2 cells",[3],99%
same,"IC50 (nM), cytotoxicity in C4-2 cells (CellTiter-Glo)",[3],0.097 nM
Anti-STEAP2-LP3 (conjugate) VH: QVQLVESGGGVVQPGRSLRLSCVASGFTISSYGMNWVRQAPGKGLEWVAVISYDGGNKYSVDSVKGRFTISRDNSKNTLYLQMNSLRAEDSAVYYCARGRYFDLWGRGTLVTVSS VL: DIQMTQSPSTLSASVGDRVTITCRASQSISSWLAWYQQKPGRAPNLLISKASSLKSGVPSRFSGSGSGTEFTLTVSSLQPDDFATYYCQQYYSYSYTFGQGTKLEIK,Average Final Tumor size mm^3 (mean ± SEM),[4],115 ± 6 mm^3
same,Average Tumor Growth Inhibition (%),[4],108%
"Anti-STEAP2 N297Q Ab-LP4 (antibody, V domains shown, N297Q (EU numbering) in the heavy chain constant region; linker-payload LP4 (payload Ve) clicked to azido-PEG3-amine that transglutaminase put on heavy chain glutamines; DAR 3.8 (Table 7)) VH: QVQLVESGGGVVQPGRSLRLSCVASGFTISSYGMNWVRQAPGKGLEWVAVISYDGGNKYSVDSVKGRFTISRDNSKNTLYLQMNSLRAEDSAVYYCARGRYFDLWGRGTLVTVSS VL: DIQMTQSPSTLSASVGDRVTITCRASQSISSWLAWYQQKPGRAPNLLISKASSLKSGVPSRFSGSGSGTEFTLTVSSLQPDDFATYYCQQYYSYSYTFGQGTKLEIK","% kill, C4-2 cells",[3],99%
same,"IC50 (nM), cytotoxicity in C4-2 cells (CellTiter-Glo)",[3],0.15 nM
